{"source": "patent US20210024507A1", "about": "“Compounds” (Step Pharma S.A.S., priority 2018, published 2021)", "data": [{"biological_target": "T1, human CTPS1 (Homo sapiens, UniProt P17812)", "T1 construct": "purchased Proteros biostructures GmbH", "T1 sequence (P17812 1-591)": "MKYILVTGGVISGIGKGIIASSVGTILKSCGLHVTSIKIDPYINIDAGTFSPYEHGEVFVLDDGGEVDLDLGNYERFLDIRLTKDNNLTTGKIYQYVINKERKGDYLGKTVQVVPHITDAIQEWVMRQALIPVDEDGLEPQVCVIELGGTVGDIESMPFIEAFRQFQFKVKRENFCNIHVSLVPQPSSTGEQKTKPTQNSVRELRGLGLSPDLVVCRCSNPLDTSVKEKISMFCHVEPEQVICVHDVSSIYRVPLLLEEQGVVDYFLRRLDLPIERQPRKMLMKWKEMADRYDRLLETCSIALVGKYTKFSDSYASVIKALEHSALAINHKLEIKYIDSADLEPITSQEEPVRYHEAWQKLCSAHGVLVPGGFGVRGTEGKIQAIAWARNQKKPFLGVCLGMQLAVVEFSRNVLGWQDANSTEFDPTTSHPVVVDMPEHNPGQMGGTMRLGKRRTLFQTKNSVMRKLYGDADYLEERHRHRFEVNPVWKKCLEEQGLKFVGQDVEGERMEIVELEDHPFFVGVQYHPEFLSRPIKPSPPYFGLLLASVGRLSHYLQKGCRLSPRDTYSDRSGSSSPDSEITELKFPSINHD", "assay": "Human CTPS1 enzyme inhibition (ADP-Glo Max assay)", "type": "biochemical", "conditions": "human full length CTPS1, 25° C., numeric value printed instead of class symbol, read-out: CTPS1 (Human CTPS1 Enzyme Inhibition, IC50)", "experimental": "(§1) The enzyme inhibitory activities of compounds invented against the target of interest were determined using the ADP-GIoTM Max assay (Promega, UK). Assays for human CTPS1 were performed in lx assay buffer containing 50mM Tris, 10mM MgCl2, 0.01% Tween-20, pH to 8.0 accordingly. Finally, immediately before use, L-cysteine was added to the lx assay buffer to a final concentration of 2mM. All reagents are from Sigma-Aldrich unless specified otherwise. Human full length active C-terminal FLAG-Hiss-tag CTPS1 (UniProtKB - P17812, CTPS[1-591]-[…]) was obtained from Proteros biostructures GmbH.\n(§2) Assay Procedure 3× human CTPS1 protein was prepared in lx assay buffer to the final working protein concentration required for the reaction. A 2uL volume per well of 3x human CTPS1 protein was mixed with 2uL per well of 3× test compound (compound prepared in lx assay buffer to an appropriate final 3× compound concentration respective to the concentration response curve designed for the compounds under test) for 10 minutes at 25° C. The enzymatic reaction was then initiated by addition of a 2uL per well volume of a pre-mixed substrate mix (UltraPure ATP from ADP-GIo™ Max kit (0.31mM), GTP (0.034mM), UTP (0.48mM) and L-glutamine (0.186mM)) and the mixture was incubated for an appropriate amount of time within the determined linear phase of the reaction at 25° C. under sealed plate conditions with constant agitation at 500 revolutions per minute (rpm). ADP-GIo™ Max reagent was added for 60 minutes ([…] per well) and subsequently ADP-GIo™ Max development reagent was added for 60 minutes (12uL per well) prior to signal detection in a microplate reader (EnVision® Multilabel Reader, Perkin Elmer). Following each reagent addition over the course of the assay, assay plates were pulse centrifuged for 30 seconds at 500rpm.\n(§3) In all cases, the enzyme converts ATP to ADP and the ADP-GIo™ Max reagent subsequently depletes any remaining endogenous ATP in the reaction system. The ADP-GIo™ Max detection reagent converts the ADP that has been enzymatically produced back into ATP and using ATP as a substrate together with luciferin for the enzyme luciferase, light is generated which produces a detectable luminescence. […] The percentage inhibition produced by each concentration of compound was calculated using the equation shown below: […]\n(§4) Percentage inhibition was then plotted against compound concentration, and the 50% inhibitory concentration (IC50) was determined from the resultant concentration-response curve.", "units": {"IC50": "µM"}, "values": [{"smiles": "CS(=O)(=O)Nc1cncc(CC(=O)Nc2ccc(-c3cccnc3)cc2)n1", "note": "[P194, 2-(6-(methylsulfonamido)pyrazin-2-yl)-N-(4-(pyridin-3-yl)phenyl)acetamide]", "IC50": 58.6}]}, {"biological_target": "T1, human CTPS1", "assay": "Human CTPS1 enzyme inhibition (ADP-Glo Max assay)", "type": "biochemical", "conditions": "human full length CTPS1, 25° C., read-out: CTPS1 (Human CTPS1 Enzyme Inhibition, IC50 grouped by potency range)", "experimental": "as §1, §2, §3, §4", "units": {"IC50": "µM"}, "values": [{"smiles": "CCOc1cncc(-c2ccc(C(=O)NC(CC)c3cncc(NS(=O)(=O)C4CC4)n3)c(F)c2)n1", "note": "(single isomer, unassigned) [P224, N-(1-(6-(cyclopropanesulfonamido)pyrazin-2-yl)propyl)-4-(6-ethoxypyrazin-2-yl)-2-fluorobenzamide]", "IC50": "0.1 to 1"}, {"smiles": "CCC(C(=O)Nc1ccc(-c2cnccn2)cc1F)c1ccnc(NS(=O)(=O)C2CC2)n1", "note": "(stereo not shown) [P6, 2-(2-(Cyclopropanesulfonamido)pyrimidin-4-yl)-N-(2-fluoro-4-(pyrazin-2-yl)phenyl)butanamide]", "IC50": "0.1 to 1"}, {"smiles": "CCC(C(=O)Nc1ccc(-c2cncc(C(F)(F)F)c2)cc1)c1ccnc(NS(=O)(=O)C2CC2)n1", "note": "(stereo not shown) [P7, 2-(2-(Cyclopropanesulfonamido)pyrimidin-4-yl)-N-(4-(5-(trifluoromethyl)pyridin-3-yl)phenyl)butanamide]", "IC50": "0.1 to 1"}, {"smiles": "CCC(C(=O)Nc1ccc(-c2cncc(OCC(F)(F)F)c2)cn1)c1ccnc(NS(=O)(=O)C2CC2)n1", "note": "(stereo not shown) [P85]", "IC50": "0.1 to 1"}, {"smiles": "CCC(C(=O)Nc1ccc(-c2cccnc2)cn1)c1ccnc(NS(=O)(=O)C2CC2)n1", "note": "(stereo not shown) [P86, N-([3,3′-bipyridin]-6-yl)-2-(2-(cyclopropanesulfonamido)pyrimidin-4-yl)butanamide]", "IC50": "1 to 10"}, {"smiles": "CCC(C(=O)Nc1ccc(-c2cncc(Cl)c2)cc1F)c1ccnc(NS(=O)(=O)C2CC2)n1", "note": "(stereo not shown) [P90, N-(4-(5-chloropyridin-3-yl)-2-fluorophenyl)-2-(2-(cyclopropanesulfonamido)pyrimidin-4-yl)butanamide]", "IC50": "0.1 to 1"}, {"smiles": "CCC(C(=O)Nc1ccc(-c2cncc(OCC(F)(F)F)c2)cc1F)c1ccnc(NS(=O)(=O)C2CC2)n1", "note": "(stereo not shown) [P91, 2-(2-(cyclopropanesulfonamido)pyrimidin-4-yl)-N-(2-fluoro-4-(5-(2,2,2-trifluoroethoxy)pyridin-3-yl)phenyl)butanamide]", "IC50": "0.1 to 1"}, {"smiles": "CCC(C(=O)Nc1ccc(-c2cncc(OC(C)C)c2)cc1F)c1ccnc(NS(=O)(=O)C2CC2)n1", "note": "(stereo not shown) [P92, 2-(2-(cyclopropanesulfonamido)pyrimidin-4-yl)-N-(2-fluoro-4-(5-isopropoxypyridin-3-yl)phenyl)butanamide]", "IC50": "0.1 to 1"}, {"smiles": "CCC(C(=O)Nc1ccc(-c2cccnc2)cc1F)c1ccnc(NS(=O)(=O)C2CC2)n1", "note": "(stereo not shown) [P93, 2-(2-(cyclopropanesulfonamido)pyrimidin-4-yl)-N-(2-fluoro-4-(pyridin-3-yl)phenyl)butanamide]", "IC50": "1 to 10"}, {"smiles": "CCC(C(=O)Nc1ccc(-c2cncc(C(F)(F)F)n2)cc1F)c1ccnc(NS(=O)(=O)C2CC2)n1", "note": "(stereo not shown) [P94, 2-(2-(cyclopropanesulfonamido)pyrimidin-4-yl)-N-(2-fluoro-4-(6-(trifluoromethyl)pyrazin-2-yl)phenyl)butanamide]", "IC50": "≤ 0.1"}, {"smiles": "CCC(C(=O)Nc1ccc(-c2cncc(OC(C)C)n2)cc1F)c1ccnc(NS(=O)(=O)C2CC2)n1", "note": "(stereo not shown) [P97, 2-(2-(cyclopropanesulfonamido)pyrimidin-4-yl)-N-(2-fluoro-4-(6-isopropoxypyrazin-2-yl)phenyl)butanamide]", "IC50": "≤ 0.1"}, {"smiles": "CCC(C(=O)Nc1ccc(-c2cncc(C#N)c2)cc1)c1ccnc(NS(=O)(=O)C2CC2)n1", "note": "(stereo not shown) [P99, N-(4-(5-cyanopyridin-3-yl)phenyI)-2-(2-(cyclopropanesulfonamido)pyrimidin-4-yl)butanamide]", "IC50": "0.1 to 1"}, {"smiles": "CCC(C(=O)Nc1ccc(-c2cncc(OCC(F)(F)F)c2)cc1)c1ccnc(NS(=O)(=O)C2CC2)n1", "note": "(stereo not shown) [P100, 2-(2-(cyclopropanesulfonamido)pyrimidin-4-yl)-N-(4-(5-(2,2,2-trifluoroethoxy)pyridin-3-yl)phenyl)butanamide]", "IC50": "0.1 to 1"}, {"smiles": "CCC(C(=O)Nc1ccc(-c2cncc(OC(C)C)c2)cc1)c1ccnc(NS(=O)(=O)C2CC2)n1", "note": "(stereo not shown) [P101, 2-(2-(cyclopropanesulfonamido)pyrimidin-4-yl)-N-(4-(5-isopropoxypyridin-3-yl)phenyl)butanamide]", "IC50": "0.1 to 1"}, {"smiles": "CCC(C(=O)Nc1ccc(-c2cccnc2)cc1)c1ccnc(NS(=O)(=O)C2CC2)n1", "note": "(stereo not shown) [P102, 2-(2-(cyclopropanesulfonamido)pyrimidin-4-yl)-N-(4-(pyridin-3-yl)phenyl)butanamide]", "IC50": "0.1 to 1"}, {"smiles": "CCC(C(=O)Nc1ccc(-c2cncc(Cl)n2)cc1)c1ccnc(NS(=O)(=O)C2CC2)n1", "note": "(stereo not shown) [P104, N-(4-(6-chloropyrazin-2-yl)phenyl)-2-(2-(cyclopropanesulfonamido)pyrimidin-4-yl)butanamide]", "IC50": "0.1 to 1"}, {"smiles": "CCC(C(=O)Nc1ccc(-c2cncc(OC)n2)cc1)c1ccnc(NS(=O)(=O)C2CC2)n1", "note": "(stereo not shown) [P106, 2-(2-(cyclopropanesulfonamido)pyrimidin-4-yl)-N-(4-(6-methoxypyrazin-2-yl)phenyl)butanamide]", "IC50": "≤ 0.1"}, {"smiles": "CCC(C(=O)Nc1ccc(-c2cncc(OC(C)C)n2)cc1)c1ccnc(NS(=O)(=O)C2CC2)n1", "note": "(stereo not shown) [P107, 2-(2-(cyclopropanesulfonamido)pyrimidin-4-yl)-N-(4-(6-isopropoxypyrazin-2-yl)phenyl)butanamide]", "IC50": "≤ 0.1"}, {"smiles": "CCC(C(=O)Nc1ccc(-c2cnccn2)cc1)c1ccnc(NS(=O)(=O)C2CC2)n1", "note": "(stereo not shown) [P109, 2-(2-(cyclopropanesulfonamido)pyrimidin-4-yl)-N-(4-(pyrazin-2-yl)phenyl)butanamide]", "IC50": "0.1 to 1"}, {"smiles": "CC(C(=O)Nc1ccc(-c2cccnc2)cc1)c1ccnc(NS(=O)(=O)C2CC2)n1", "note": "(stereo not shown) [P111, 2-(2-(cyclopropanesulfonamido)pyrimidin-4-yl)-N-(4-(pyridin-3-yl)phenyl)propanamide]", "IC50": "0.1 to 1"}, {"smiles": "CCC(C(=O)Nc1ccc(-c2cncc(C(F)(F)F)n2)cn1)c1cccc(NS(=O)(=O)C2CC2)n1", "note": "(stereo not shown) [P187, 2-(6-(cyclopropanesulfonamido)pyridin-2-yl)-N-(5-(6-(trifluoromethyl)pyrazin-2-yl)pyridin-2-yl)butanamide]", "IC50": "0.1 to 1"}, {"smiles": "CCC(C(=O)Nc1ccc(-c2cncc(Cl)c2)cc1)c1cccc(NS(=O)(=O)C2CC2)n1", "note": "(stereo not shown) [P189, N-(4-(5-chloropyridin-3-yl)phenyl)-2-(6-(cyclopropanesulfonamido)pyridin-2-yl)butanamide]", "IC50": "1 to 10"}, {"smiles": "CCOc1cncc(-c2ccc(NC(=O)C(CC)c3cccc(NS(=O)(=O)C4CC4)n3)c(F)c2)n1", "note": "(stereo not shown) [P190, 2-(6-(cyclopropanesulfonamido)pyridin-2-yl)-N-(4-(6-ethoxypyrazin-2-yl)-2-fluorophenyl)butanamide]", "IC50": "0.1 to 1"}, {"smiles": "CCOc1cncc(-c2ccc(NC(=O)C(C)(CCOC)c3cncc(NS(C)(=O)=O)n3)nc2)n1", "note": "(stereo not shown) [P199, N-(5-(6-ethoxypyrazin-2-yl)pyridin-2-yl)-4-methoxy-2-methyl-2-(6-(methylsulfonamido)pyrazin-2-yl)butanamide]", "IC50": "0.1 to 1"}, {"smiles": "CCOc1cncc(-c2ccc(NC(=O)C(OC)c3cncc(NS(=O)(=O)C4CC4)n3)nc2)n1", "note": "(stereo not shown) [P203, 2-(6-(cyclopropanesulfonamido)pyrazin-2-yl)-N-(5-(6-ethoxypyrazin-2-yl)pyridin-2-yl)-2-methoxyacetamide]", "IC50": "≤ 0.1"}, {"smiles": "CCOc1cncc(-c2ccc(NC(=O)C(OC)c3cncc(NS(=O)(=O)C4CC4)n3)cc2)n1", "note": "(stereo not shown) [P204, 2-(6-(cyclopropanesulfonamido)pyrazin-2-yl)-N-(4-(6-ethoxypyrazin-2-yl)phenyl)-2-methoxyacetamide]", "IC50": "≤ 0.1"}, {"smiles": "CCOc1cncc(-c2ccc(NC(=O)C(C)(OC)c3cncc(NS(=O)(=O)C4CC4)n3)nc2)n1", "note": "(stereo not shown) [P205, 2-(6-(cyclopropanesulfonamido)pyrazin-2-yl)-N-(5-(6-ethoxypyrazin-2-yl)pyridin-2-yl)-2-methoxypropanamide]", "IC50": "≤ 0.1"}]}]}
